Measurements reported in US8778888B2, “Cystine knot peptides binding to alpha IIb beta 3 integrins and methods of use” (The Board of Trustees of the Leland Stanford Junior …, priority 2009, dated 2014).
Where two headings read alike, the source gives them in different places. Bridge positions count the residues as written; N and C are the ends. Square brackets hold non-standard residues; d marks the D form. Peptide text beside a SMILES is read from it. hArg = N=C(N)NCCCC[C@H](N)C(=O)O; Mpa = O=C(O)CCS

Key:
[1] = target: T1, αIIbβ3 integrin (K562-αIIbβ3 cells) (Homo sapiens, UniProt P05106+P08514); assay: Cell binding assay on K562-αIIbβ3 cells (flow cytometry); conditions: K562-αIIbβ3 versus K562-αvβ3 cells
T1 construct: expressed in transfected cells; host or cells: K562 leukemia cells (from S. Blystone)
Description: K562 cells stably expressing αIIbβ3, αvβ3, or αvβ5 were obtained from S. Blystone and maintained in IMDM media (Gibco) containing 10% FBS and 1.0 mg/mL geneticin. For binding assays, 10^5 cells were suspended in IBB, and varying concentrations of AgRP peptides were added. After 3 hour incubation at 4° C., the cells were centrifuged, aspirated, and resuspended in ice-cold BPBS containing a 1:20 dilution of fluorescein-conjugated goat anti-His antibody (Bethyl) for […]. The cells were then centrifuged, aspirated, and stored as pellets on ice until analysis by flow cytometry using a BD FACS Caliber instrument Becton Dickinson. Binding data was analyzed with FlowJo (Treestar, Inc.) and data was fit to sigmoidal plots using Kaleidagraph (Synergy Software) to calculate equilibrium dissociation constants. Experiments were performed at least 3 times and data are presented as average values with standard deviations.
To determine the integrin binding affinities and specificities of the engineered AgRP peptides, direct binding assays were performed using K562 leukemia cells that have been transfected to stably express different integrin receptors See J. Cell Biol. 127(4) (1994). Cells were incubated in the presence of varying concentrations of AgRP peptides at 4° C., to minimize receptor internalization, followed by staining with a fluorescein-conjugated anti-hexahistidine antibody and analysis by flow cytometry. Equilibrium dissociation constants (KD values) were determined by plotting AgRP peptide concentration (log scale) versus normalized mean fluorescence intensity, then fitting the data to a sigmoidal curve.

[2] = test system: human platelets; conditions: for IC50: read-out: aggregation (IC50; nM) human platelets, platelets activated with 25 μM ADP, A365 end point over 1 h
Description: Human platelets isolated by pheresis were obtained from the Stanford Blood Center and stored in serum with 7% acid/citrate/dextrose (ACD) solution. Prior to use, the platelets were centrifuged, aspirated, washed once with Tyrode's buffer (140 mM NaCl, 3 mM KCl, 12 mM NaHCO3, 0.4 mM NaH2PO4, 2 mM MgCl2, 0.1% glucose, pH 7.4), and counted using a haemacytometer. Counted platelets were resuspended in fresh plasma to a final concentration of approximately 2.8×10^8 cells/mL. 180 μL of the platelet solution, or approximately 5×10^7 platelets, were added to separate wells in a 96-well microtiter plate. AgRP peptide or eptifibatide (Cell Sciences) were added to the wells at varying concentrations, after which the platelets were activated with 25 μM ADP. Absorbance at 365 nm was monitored over 1 hr using a Synergy 4 microplate reader (BioTek Instrumentation) with readings taken every 35 s, with 3 s of shaking between readings. […] Experiments were performed at least 3 times.
Next, the effects of the engineered AgRP peptides on αIIbβ3-mediated platelet aggregation were studied. Three αIIbβ3-specific peptides (2bA, 2bJ, and 2bO) and two β3-specific peptides (b3A and b3I) were tested again. […] Microtiter plates containing platelets in serum in the presence or absence of AgRP peptides were activated using ADP at a final concentration of 25 μM, and absorbance at 365 nm was monitored over 1 h.

[3] = cited from earlier work; for bleeding in patients: clinical use
[4] = target: αIIbβ3 integrin (Homo sapiens, UniProt P05106+P08514); conditions: clinical use; cited from earlier work
[5] = test system: ADP-induced platelet aggregation; conditions: clinical use; cited from earlier work
[6] = test system: αvβ3 integrin and the leukocyte integrin Mac-1; conditions: cited from earlier work
[7] = target: T2, αvβ3 integrin (Homo sapiens, UniProt P05106+P06756); assay: Yeast-displayed AgTx constructs binding to αvβ3 integrin; conditions: 10 nM αvβ3, the lowest concentration tested
T2 construct: purchased Millipore
Description: The yeast library was grown in selective media (SD-CAA, 20 g/L glucose, 6.7 g/L yeast nitrogen base without amino acids, 5.4 g/L Nα2HPO4, 8.6 g/L NaH2PO4.H2O, and 5 g/L Bacto casamino acids) and induced in selective media containing galactose (SG-CAA). For library screening, 5 to 25×10^6 yeast (depending on the sort round) were labeled with detergent-solubilized integrin and a 1:250 dilution of chicken anti-c-myc IgY (Invitrogen) in integrin binding buffer (IBB, 20 mM Tris pH 7.5 with 1 mM MgCl2, 1 mM MnCl2, 2 mM CaCl2, 100 mM NaCl, and 1 mg/mL bovine serum albumin) at room temperature for 2 h. The yeast cells were centrifuged at 4° C. and the supernatant was removed by aspiration. The yeast were then resuspended in ice-cold BPBS (PBS containing 1 mg/mL bovine serum albumen) containing a 1:100 dilution of phycoerythrin-conjugated goat anti-chicken IgY secondary antibody (Santa Cruz Biotechnology) and a 1:25 dilution of either fluorescein-conjugated anti-αvβ3 antibody (Biolegend) or fluorescein-conjugated anti-αIIb antibody (Biolegend), as appropriate. After incubation for 20 min on ice, the yeast were centrifuged, aspirated, and stored as pellets on ice until cell sorting. Yeast library screening was performed using a Becton Dickinson FACS Vantage SE instrument (Stanford FACS Core Facility) and CellQuest software. […]

T2 sequence (P06756 31-889 limits assumed): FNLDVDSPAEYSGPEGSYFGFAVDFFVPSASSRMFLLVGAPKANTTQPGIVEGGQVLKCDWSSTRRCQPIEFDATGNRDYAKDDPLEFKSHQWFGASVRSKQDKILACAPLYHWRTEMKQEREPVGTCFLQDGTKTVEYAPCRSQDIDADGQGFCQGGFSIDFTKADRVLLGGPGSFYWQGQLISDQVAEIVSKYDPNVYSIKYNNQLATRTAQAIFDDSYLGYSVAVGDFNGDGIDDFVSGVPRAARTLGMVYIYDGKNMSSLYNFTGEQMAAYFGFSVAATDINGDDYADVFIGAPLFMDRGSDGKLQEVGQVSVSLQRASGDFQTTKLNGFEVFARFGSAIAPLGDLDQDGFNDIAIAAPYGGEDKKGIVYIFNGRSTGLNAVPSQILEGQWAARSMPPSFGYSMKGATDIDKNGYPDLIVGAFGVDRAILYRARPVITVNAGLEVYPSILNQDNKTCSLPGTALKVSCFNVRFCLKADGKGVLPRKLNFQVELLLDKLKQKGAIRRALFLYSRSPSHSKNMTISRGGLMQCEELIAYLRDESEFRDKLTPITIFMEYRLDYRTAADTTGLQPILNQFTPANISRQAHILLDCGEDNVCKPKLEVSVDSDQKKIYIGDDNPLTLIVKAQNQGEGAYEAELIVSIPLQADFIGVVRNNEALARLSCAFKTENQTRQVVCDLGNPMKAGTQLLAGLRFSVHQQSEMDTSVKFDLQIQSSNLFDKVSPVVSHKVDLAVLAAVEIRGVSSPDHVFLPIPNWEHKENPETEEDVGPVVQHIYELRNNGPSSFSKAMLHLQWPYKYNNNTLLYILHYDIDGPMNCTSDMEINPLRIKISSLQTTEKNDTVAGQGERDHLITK
T2 sequence (P06756 891-1048 partner limits assumed): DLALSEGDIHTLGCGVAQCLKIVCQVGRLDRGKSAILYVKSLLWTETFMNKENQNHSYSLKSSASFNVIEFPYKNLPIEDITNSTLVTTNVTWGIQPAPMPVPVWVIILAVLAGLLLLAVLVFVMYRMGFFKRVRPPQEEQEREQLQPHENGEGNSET
T2 sequence (P05106 27-788): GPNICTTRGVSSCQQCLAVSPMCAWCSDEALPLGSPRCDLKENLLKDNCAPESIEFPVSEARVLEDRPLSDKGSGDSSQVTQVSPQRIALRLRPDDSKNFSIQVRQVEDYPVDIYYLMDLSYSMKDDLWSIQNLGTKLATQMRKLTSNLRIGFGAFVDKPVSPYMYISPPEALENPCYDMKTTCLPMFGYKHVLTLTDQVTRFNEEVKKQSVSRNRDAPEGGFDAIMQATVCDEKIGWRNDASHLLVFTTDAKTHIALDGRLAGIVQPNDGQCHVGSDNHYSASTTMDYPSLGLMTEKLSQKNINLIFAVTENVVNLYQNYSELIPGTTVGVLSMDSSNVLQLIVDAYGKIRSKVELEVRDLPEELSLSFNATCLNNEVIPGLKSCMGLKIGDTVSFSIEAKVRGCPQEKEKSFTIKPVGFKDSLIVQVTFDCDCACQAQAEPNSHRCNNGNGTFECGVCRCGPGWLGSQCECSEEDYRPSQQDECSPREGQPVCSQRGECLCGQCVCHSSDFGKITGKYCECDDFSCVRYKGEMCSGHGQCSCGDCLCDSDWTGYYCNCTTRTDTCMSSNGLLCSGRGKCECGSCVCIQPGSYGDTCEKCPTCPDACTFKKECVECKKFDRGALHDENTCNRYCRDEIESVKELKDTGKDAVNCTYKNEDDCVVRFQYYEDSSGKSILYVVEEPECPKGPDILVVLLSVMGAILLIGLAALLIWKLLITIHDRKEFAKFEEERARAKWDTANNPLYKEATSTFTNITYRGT

Molecule: CC(C)C[C@@H]1NC(=O)[C@@H]2CSSC[C@@H]3NC(=O)[C@H]([C@@H](C)O)NC(=O)[C@H](C)NC(=O)[C@H](C)NC(=O)[C@@H]4CCCN4C(=O)[C@H](CC(=O)O)NC(=O)[C@H](CSSC[C@H](NC(=O)CNC(=O)[C@H](CCCNC(=N)N)NC(=O)[C@@H]4CCCN4C(=O)[C@H](CCCCN)NC(=O)[C@H](CC(=O)O)NC(=O)[C@H](CC(=O)O)NC(=O)[C@H](CC(=O)O)NC(=O)[C@H](CC(=O)O)NC(=O)[C@H](CCCCN)NC(=O)[C@H](Cc4ccc(O)cc4)NC(=O)[C@H](CC(=O)O)NC(=O)[C@@H](NC(=O)[C@@H](N)Cc4ccc(O)cc4)C(C)C)C(=O)N[C@@H](C(C)C)C(=O)N[C@@H](CCCNC(=N)N)C(=O)N[C@@H](CC(C)C)C(=O)N[C@@H](Cc4c[nH]cn4)C(=O)N[C@@H](CCC(=O)O)C(=O)N[C@@H](CO)C(=O)N2)NC(=O)[C@H](CSSC[C@@H](C(=O)N[C@@H](CCCNC(=N)N)C(=O)N[C@H](C(=O)N[C@@H](CCCNC(=N)N)C(=O)N[C@@H](Cc2c[nH]cn2)C(=O)N[C@@H](Cc2c[nH]cn2)C(=O)N[C@@H](Cc2c[nH]cn2)C(=O)N[C@@H](Cc2c[nH]cn2)C(=O)N[C@@H](Cc2c[nH]cn2)C(=O)N[C@@H](Cc2c[nH]cn2)C(=O)O)[C@@H](C)O)NC(=O)[C@H](Cc2ccc(O)cc2)NC(=O)[C@@H]2CSSC[C@H](NC(=O)[C@H](Cc4ccc(O)cc4)NC3=O)C(=O)N[C@@H](CCCNC(=N)N)C(=O)NCC(=O)N[C@@H](CCCNC(=N)N)C(=O)NCC(=O)N[C@@H](CC(=O)O)C(=O)N[C@@H](C(C)C)C(=O)N[C@@H](CCCCN)C(=O)N[C@@H](CC(C)C)C(=O)N[C@@H](CCCNC(=N)N)C(=O)N2)NC(=O)[C@@H]2CCCN2C(=O)[C@H](C(C)C)NC(=O)[C@H](CCC(N)=O)NC(=O)[C@H](CCC(N)=O)NC(=O)CNC1=O [b3I]
- integrin binding specificity on K562 cell lines [1]: bound both K562-αIIbβ3 and K562-αvβ3 cells
- inhibition of platelet aggregation (in words) ([2]; ADP-activated human platelets, comparison with eptifibatide): slightly more effective

Molecule: N=C(N)NCCCC[C@@H]1NC(=O)CCSSC[C@@H](C(N)=O)NC(=O)[C@@H]2CCCN2C(=O)[C@H](Cc2c[nH]c3ccccc23)NC(=O)[C@H](CC(=O)O)NC(=O)CNC1=O [eptifibatide, Mpr-Har-Gly-Asp-Trp-Pro-Cys, reference compound] ([Mpa][hArg]GDWPC-NH2; disulfide 1-7)
- IC50 [2]: 94 ± 14 nM
- IC50 ([2]; listed as Eptifibatide): 80 nM
- bleeding in patients [3]: no increases in bleeding have been reported

Molecule: Abciximab: αIIbβ3 integrin-specific antibody fragment c7E3
- blockage of αIIbβ3 integrin [4]: > 90%
- inhibition of ADP-induced platelet aggregation [5]: > 80%
- bleeding in patients [3]: bleeding issues in many patients
- persistence of the antibody in the patient ([3]; in spite of a 12-hour infusion): over two-thirds of the antibody persists in the patient for several weeks
- binding to other integrins [6]: also binds to αvβ3 integrin and the leukocyte integrin Mac-1

Molecule: GCIAEDYGRCTWGGTPCCRGRGCICSGRGDNDLVCECT [AgTx2-7A, AgRP 7A loop 4 grafted into AgTx consensus 2]
- binding to αvβ3 integrin on yeast surface [7]: Binding was observed at 10 nM αvβ3

Molecule: GCIAEDYGRCTWGGTPCCRGRPCRCSGRGDNDLVCECT [AgTX-1-7A, AgRP 7A loop 4 grafted into AgTx consensus 1]
- binding to αvβ3 integrin on yeast surface [7]: Binding was observed at 10 nM αvβ3
